Data reported in ChEMBL document CHEMBL3885861, “Open TG-GATES”.

Species: Rattus norvegicus
Experiment: Open TG-GATES - Regimen: Single
Type: toxicity, organism-based, Sprague-Dawley
Set-up: regimen Single, gender Male, age 6 weeks
Details: in vivo, po, 10 mg/kg, route gavage, dose level Middle; for APTT / Bas / Eos / Fbg / Hb / Ht / Lym / MCH / MCHC / MCV / Mono / Neu / PT / Plat / RBC / Ret / WBC: tissue Blood; for KIDNEY_L / KIDNEY_R / KIDNEY_TOTAL: tissue Kidney; for LIVER: tissue Liver; for A/G / ALP / ALT / AST / BUN / CRE / Ca / Cl / DBIL / GLC / IP / K / LDH / Na / PL / RALB / TBIL / TC / TG / TP / gamma-GTP: tissue Plasma

C=CCO [ALLYL ALCOHOL]
TERMINAL_BW (3 h): 220.3 g
APTT (3 h): 20.3 s
Bas (3 h): 0%
Eos (3 h): 1%
Fbg (3 h): 217.8 mg/dL
Hb (3 h): 13.7 g/dL
Ht (3 h): 39.5%
Lym (3 h): 79.4%
MCH (3 h): 21.3 pg
MCHC (3 h): 34.9%
MCV (3 h): 61 fL
Mono (3 h): 2.8%
Neu (3 h): 16.8%
PT (3 h): 12.5 s
Plat (3 h): 140.4 x10_4/uL
RBC (3 h): 648.2 x10_4/ul
Ret (3 h): 6.3%
WBC (3 h): 94.5 x10_2/uL
KIDNEY_L (3 h): 1 g
KIDNEY_R (3 h): 1 g
KIDNEY_TOTAL (3 h): 2 g
LIVER (3 h): 9.9 g
A/G (3 h): 1.5
ALP (3 h): 1147.4 IU/L
ALT (3 h): 37.6 IU/L
AST (3 h): 69.6 IU/L
BUN (3 h): 10.2 mg/dL
CRE (3 h): 0.4 mg/dL
Ca (3 h): 10.6 mg/dL
Cl (3 h): 100.2 meq/L
DBIL (3 h): 0.3 mg/dL
GLC (3 h): 197.8 mg/dL
IP (3 h): 8.6 mg/dL
K (3 h): 3.7 meq/L
LDH (3 h): 209.2 IU/L
Na (3 h): 139.4 meq/L
PL (3 h): 170.4 mg/dL
RALB (3 h): 3.4 g/dL
TBIL (3 h): 0.4 mg/dL
TC (3 h): 77 mg/dL
TG (3 h): 204.8 mg/dL
TP (3 h): 5.6 g/dL
gamma-GTP (3 h): 1 IU/L
TERMINAL_BW (6 h): 220.1 g
APTT (6 h): 19.1 s
Bas (6 h): 0%
Eos (6 h): 1%
Fbg (6 h): 226.8 mg/dL
Hb (6 h): 13.2 g/dL
Ht (6 h): 38.1%
Lym (6 h): 76%
MCH (6 h): 22 pg
MCHC (6 h): 34.5%
MCV (6 h): 63.7 fL
Mono (6 h): 3.2%
Neu (6 h): 19.2%
PT (6 h): 12.1 s
Plat (6 h): 132 x10_4/uL
RBC (6 h): 598 x10_4/ul
Ret (6 h): 7.1%
WBC (6 h): 99.4 x10_2/uL
KIDNEY_L (6 h): 1 g
KIDNEY_R (6 h): 1 g
KIDNEY_TOTAL (6 h): 1.9 g
LIVER (6 h): 9.8 g
A/G (6 h): 1.4
ALP (6 h): 1136.8 IU/L
ALT (6 h): 35 IU/L
AST (6 h): 74 IU/L
BUN (6 h): 8 mg/dL
CRE (6 h): 0.4 mg/dL
Ca (6 h): 10.7 mg/dL
Cl (6 h): 102.4 meq/L
DBIL (6 h): 0.2 mg/dL
GLC (6 h): 200.2 mg/dL
IP (6 h): 9.1 mg/dL
K (6 h): 3.8 meq/L
LDH (6 h): 221.4 IU/L
Na (6 h): 141.2 meq/L
PL (6 h): 164.2 mg/dL
RALB (6 h): 3.2 g/dL
TBIL (6 h): 0.2 mg/dL
TC (6 h): 77.8 mg/dL
TG (6 h): 114.4 mg/dL
TP (6 h): 5.5 g/dL
gamma-GTP (6 h): 1.2 IU/L
TERMINAL_BW (9 h): 215.5 g
APTT (9 h): 18 s
Bas (9 h): 0%
Eos (9 h): 1%
Fbg (9 h): 217 mg/dL
Hb (9 h): 13.3 g/dL
Ht (9 h): 38.6%
Lym (9 h): 80.4%
MCH (9 h): 21.5 pg
MCHC (9 h): 34.4%
MCV (9 h): 62.6 fL
Mono (9 h): 2.2%
Neu (9 h): 16.2%
PT (9 h): 12.3 s
Plat (9 h): 125.1 x10_4/uL
RBC (9 h): 617.6 x10_4/ul
Ret (9 h): 6.5%
WBC (9 h): 74.3 x10_2/uL
KIDNEY_L (9 h): 0.9 g
KIDNEY_R (9 h): 0.9 g
KIDNEY_TOTAL (9 h): 1.9 g
LIVER (9 h): 8.9 g
A/G (9 h): 1.5
ALP (9 h): 1058 IU/L
ALT (9 h): 29 IU/L
AST (9 h): 62 IU/L
BUN (9 h): 9.2 mg/dL
CRE (9 h): 0.3 mg/dL
Ca (9 h): 10.5 mg/dL
Cl (9 h): 101.8 meq/L
DBIL (9 h): 0.07 mg/dL
GLC (9 h): 203.8 mg/dL
IP (9 h): 10.3 mg/dL
K (9 h): 3.8 meq/L
LDH (9 h): 163.4 IU/L
Na (9 h): 140 meq/L
PL (9 h): 132.6 mg/dL
RALB (9 h): 3.3 g/dL
TBIL (9 h): 0.1 mg/dL
TC (9 h): 67 mg/dL
TG (9 h): 60.6 mg/dL
TP (9 h): 5.5 g/dL
gamma-GTP (9 h): 0.8 IU/L
TERMINAL_BW (24 h): 231.2 g
APTT (24 h): 17.9 s
Bas (24 h): 0%
Eos (24 h): 1%
Fbg (24 h): 232.2 mg/dL
Hb (24 h): 13.5 g/dL
Ht (24 h): 39.7%
Lym (24 h): 79.2%
MCH (24 h): 20.8 pg
MCHC (24 h): 34%
MCV (24 h): 61 fL
Mono (24 h): 2.8%
Neu (24 h): 16.6%
PT (24 h): 11.9 s
Plat (24 h): 127.4 x10_4/uL
RBC (24 h): 650.8 x10_4/ul
Ret (24 h): 6%
WBC (24 h): 93.9 x10_2/uL
KIDNEY_L (24 h): 1 g
KIDNEY_R (24 h): 1 g
KIDNEY_TOTAL (24 h): 1.9 g
LIVER (24 h): 11.1 g
A/G (24 h): 1.3
ALP (24 h): 1042.2 IU/L
ALT (24 h): 38.2 IU/L
AST (24 h): 65 IU/L
BUN (24 h): 15 mg/dL
CRE (24 h): 0.4 mg/dL
Ca (24 h): 10.8 mg/dL
Cl (24 h): 102.4 meq/L
DBIL (24 h): 0.08 mg/dL
GLC (24 h): 203.6 mg/dL
IP (24 h): 7.2 mg/dL
K (24 h): 3.8 meq/L
LDH (24 h): 200.4 IU/L
Na (24 h): 140.2 meq/L
PL (24 h): 152.6 mg/dL
RALB (24 h): 3.1 g/dL
TBIL (24 h): 0.1 mg/dL
TC (24 h): 79.4 mg/dL
TG (24 h): 99.4 mg/dL
TP (24 h): 5.5 g/dL
gamma-GTP (24 h): 1 IU/L
